Key:
GCGR = conditions: antagonist to glucagon; no reference given; cited from earlier work
[1] = test system: GCGR mutants of Trp295 and Asn298; assay: Whole-cell glucagon binding assay, ECL2 mutants Trp295 and Asn298; parameters: species or system human; conditions: CHO-K1 cells, 40 pM 125I-glucagon, room temperature, 3 h

In the case of `CS(=O)(=O)c1cccc(NC(=O)N(Cc2ccc(C(=O)Nc3nn[nH]n3)cc2)c2ccc(C3CCCCC3)cc2)c1` [NNC0640], the mode of antagonism (GCGR) is listed as “competitive antagonist to glucagon”.
For “glucagon: 29 amino acid hormonal peptide, glucagon (Supplementary Fig. 1a)”, the “effect of mutation of ECL2 residues on ligand binding” value [1] was “strongly affects ligand binding”.

— paper PMC3820480 (Nature, 2013)
